Measured values as given in patent publication EP0383941B1, “ULTRAVIOLET ABSORBING COSMETIC” (priority 1988, dated 1990).
Values after ≈ are worked out from the molar mass of the structure shown. Each block holds one compound with its values, some of them ahead of it.

How the values were obtained:
[1] = Measurement of water resistance (hot water treatment of aqueous suspension, extinction coefficient and TG-DTA); format: physicochemical; settings: for Water resisting stability: 10 % by weight aqueous suspension, 80°C for 2 hours, change of molecular extinction coefficient in λmax; for Change of TG-DTA: before and after hot water treatment (80°C, 2 hours)
Procedure: Fifty milliliters each of aqueous suspensions containing 10 % by weight of a cyclic imino ester and a comparative sample, respectively was prepared, and allowed to stand in a constant temperature bath of 80°C for 2 hours.
Then, 50 ml of isopropyl alcohol was added thereto, and the water and the solvent were removed using a rotary evaporator, and the residue was taken out.
This residue was measured for molecular extinction coefficient in λmax according to a similar manner to Example 1, and its change was used as a measure of water resistance. [formula] Further, the samples before and after hot water treatment were measured for TG-DTA, and its change was examined.

[2] = Measurement of ultraviolet ray-absorbing ability (spectrophotometer); format: physicochemical; settings: 1,1,2,2-tetrachloroethane, 5x10⁻⁴ g/100 ml, optical path length 1 cm; for E 1%, 1cm: at λmax
Procedure: There were measured ultraviolet ray-absorbing ability of the cyclic imino esters used in accordance with the invention and a commercially available known ultraviolet absorber (4-t-butyl-4'-methoxy-dibenzoylmethane).
The measurement was carried out using 1,1,2,2-tetrachloroethane as a solvent and Hitachi 330 type spectrophotometer under the conditions of an ultraviolet absorber concentration of 5x10⁻⁴ g/100 ml and an optical path length of 1 cm.

[3] = Measurement of solubility in water, alcohols and oily cosmetic bases; format: physicochemical; settings: 15°C
skin [4] = test: Primary irritation to the skin; format: in vivo, white rabbits; settings: for Formation of erythema or eschar: animals judged +: grade + (Well defined erythema)
Procedure: This experiment was carried out according to the following method. • 1) Eight white rabbits (weighing 2.0 to 3.0 kg) whose fur on the back was cut are grouped into two groups each consisting of 4 animals. Animals of one group (blank) were fixed as they were in braces and those of the other group were fixed in braces after excoriation at the site to be tested. • 2) Vaseline base containing 25 % by weight of a test substance was applied onto a lint cloth, and the resulting lint cloth was stuck on the surface of skin. • 3) Whole body of the rabbit was wrapped with moisture-proof rubber for dental use to prevent movement of the stuck lint cloth and at the same time evaporation of volatile substance. • 4) Twenty-four hours thereafter the lint cloth was removed and the test site was observed. Second and third observations are made 48 and 72 hours thereafter, respectively. The average of evaluation after 24 and 72 hours was calculated as a final evaluation point. • 5) Evaluation was made by independently judging formation of erythema and eschar, and edema, specifically according to the following criteria.

Microorganisms = test: Mutagenicity test using microorganisms; format: cell-based; settings: test on mutagenicity using microorganisms
Procedure: This experiment was carried out based on "About Test on Mutagenicity Using Microorganisms", a notification of the Director of the Standard Bureau, the Ministry of Labor, Japan dated May 18, 1985.

skin [5] = test: Allergic contact dermatitis test (Guinea Pig Maximization Test); design: species or system white female guinea pigs; settings: in vivo
Procedure: Method: This experiment was carried out as follows based on "Guinea Pig Maximization Test" (Magnusson, B. & Klingman, A. M: Usefulness of guinea pig tests for detection of contact sensitizers, In Advances in Modern Toxicology. Vol 4, pp 551-560 Hemisphere Publishing Co., Washington & London, 1977) 1) The fur on the scapula of white female guinea pigs weighing 300 to 500 g was cut in an area of 4 x 6 cm. 2) Each sample was intradermally injected into a guinea pig at the positions (1), (2) and (3) shown in Figure 1 with • (1) 0.1 ml of Freund's complete adjuvant alone; • (2) 0.1 ml of test substance alone; or • (3) sample w/o emulsified with 0.1 ml of Freund's complete adjuvant 3) The fur at the sites was cut one week after the intradermal injection, and a […] test substance, 10 % sodium lauryl sulfate (vaseline base), was applied thereon. 4) Vaseline containing 25 % by weight of the test substance was spread on a filter paper of 2 x 4 cm and occlusive pasting was conducted for 48 hours. 5) The fur at the side of the body of a guinea pig shown at (4) in Figure 1 was cut in an area of 5 x 5 cm two weeks after the occlusive pasting. 6) The test substance was applied onto a filter paper of 2 x 2 cm, and occlusive pasting was conducted for 24 hours. 7) Measurement was carried out according to the following criterion: […]

skin [6] = test: Contact photosensitization (Adjuvant-Strip method); format: in vivo, Hartley white guinea pigs; settings: for Contact photosensitization (result in words): Adjuvant-Strip method
Procedure: (1) Hartley white guinea pigs weighing 370 to 420 g were used. (2) The fur at the cervical part of guinea pigs was cut by an eletric hair clipper, and the part was further shaved with an electric razor. (3) A section of 2 x 4 cm was set at the cervical part, and 0.1 ml portions of Freund's complete adjuvant w/o emulsified with sterilized distilled water were intradermally injected at the four corners. (4) The skin of the section of 2 x 4 cm was subjected to stripping with cellophane tape to cause light erythema. […] (6) After the application, 6 lamps in total, namely 3 sunlamps (Toshiba FL-40SE30) and 3 black lights (Toshiba FL-40SBLB) were arranged in parallel, 70 minutes irradiation was carried out at a distance of 10 cm from the light sources. Total energy of the irradiation at this time was 12.0 J/cm². (7) The procedures (4), (5) and (6) were repeated 5 times every other day. […] (9) 24 Hours after the epilation, 4 sections each of 1.5 cm x 1.5 cm were set in two rows using the medium line as a symmetry axis. (10) This site was coated with the test substance and irradiated for 70 minutes at a distance of 10 cm from 6 black lights. […] (11) Judgement was made 24 and 48 hours after the irradiation according to the following criterion: [Judgement criterion]

[7] = Vaseline base containing 25 % by weight, 4 rabbits
[8] = grade +++ (Severe erythema to slight formation of eschar), Vaseline base containing 25 % by weight, 4 rabbits
[9] = 3 = Erythema in middle to heavy degree, guinea pigs

SMILES: O=c1oc(-c2ccc3cc(-c4nc5ccccc5c(=O)o4)ccc3c2)nc2ccccc12
Water resisting stability [1]: 96.7%

SMILES: O=c1oc(-c2ccc(-c3ccc(-c4nc5ccccc5c(=O)o4)cc3)cc2)nc2ccccc12
λmax (maximum absorption wavelength) [2]: 348 nm
λs (absorption intiation wavelength) [2]: 395 nm
E 1%, 1cm [2]: 1300
Water resisting stability [1]: 97.6%

Water resisting stability [1]: 52.0%
SMILES: COc1ccc(C(=O)CC(=O)c2ccccc2C(=O)O)cc1 [4-methoxy-2'-sodium carboxylate-dibenzoylmethane, reference compound]

λmax (maximum absorption wavelength) [2]: 360 nm
λs (absorption intiation wavelength) [2]: 400 nm
E 1%, 1cm [2]: 1040
solubility ([3]; Water): 0.0002 mg/mL (≈ 0.000644 mM)
solubility ([3]; organic solvent or mixture, Castor oil): 96 mg/mL (≈ 309 mM)
solubility ([3]; organic solvent or mixture, Ethanol): 16 mg/mL (≈ 51.5 mM)
solubility ([3]; organic solvent or mixture, Glycerin): 2.5 mg/mL (≈ 8.05 mM)
solubility ([3]; organic solvent or mixture, Isopropyl myristate): 53 mg/mL (≈ 171 mM)
solubility ([3]; organic solvent or mixture, Light liquid paraffin): 8.5 mg/mL (≈ 27.4 mM)
solubility ([3]; organic solvent or mixture, Olive oil): 19 mg/mL (≈ 61.2 mM)
Water resisting stability [1]: 89.4%
Change of TG-DTA [1]: genera-tion of subpeak
SMILES: COc1ccc(C(=O)CC(=O)c2ccc(C(C)(C)C)cc2)cc1 [4-t-butyl-4'-methoxydibenzoylmethane, 4-t-butyl-4'-methoxy-dibenzoylmethane]

SMILES: O=c1oc(-c2ccc(-c3nc4ccccc4c(=O)o3)cc2)nc2ccccc12 [A, 2,2'-p-phenylenebis(3,1-benzoxazin-4-one)]
λmax (maximum absorption wavelength) [2]: 350 nm
λs (absorption intiation wavelength) [2]: 385 nm
E 1%, 1cm [2]: 1270
Water resisting stability [1]: 96.9%
Change of TG-DTA [1]: no change
Formation of edema (animals) (skin [4]; rabbit, in vivo): 0/4
Formation of erythema or eschar: animals judged ++ (skin [4]; rabbit, in vivo): 0/4
Formation of erythema or eschar: animals judged +++ (skin [4]; rabbit, in vivo): 0/4
Formation of erythema or eschar: animals judged - (skin [4]; rabbit, in vivo): 4/4
Formation of erythema or eschar: animals judged ± (skin [4]; rabbit, in vivo): 0/4
Mutagenicity (Microorganisms): No mutagenicity was observed
Judgement 0 (animals) (skin [5]): 4/4
Judgement 1 (animals) (skin [5]): 0/4
Judgement 2 (animals) (skin [5]): 0/4
Contact photosensitization (result in words) (skin [6]; guinea pigs): not observed at all
Formation of erythema, judgement 0 (animals) (skin [6]; guinea pig, in vivo): 10/10
Formation of erythema, judgement 1 (animals) (skin [6]; guinea pig, in vivo): 0/10
Formation of erythema, judgement 2 (animals) (skin [6]; guinea pig, in vivo): 0/10
Formation of erythema, judgement 3 (animals) (skin [6]; guinea pig, in vivo): 0/10

SMILES: O=c1oc(-c2ccc(-c3ccc(-c4nc5ccccc5c(=O)o4)cc3)cc2)nc2ccccc12 [B, 2,2'-(4,4'-diphenylene)bis(3,1-benzoxazin-4-one)]
Formation of edema (animals) (skin [4]; [7]): 0/4
Formation of erythema or eschar: animals judged + (skin [4]; [7]): Same as left
Formation of erythema or eschar: animals judged +++ (skin [4]; [8]): Same as left
Mutagenicity (Microorganisms): No mutagenicity was observed
Formation of erythema, judgement 3 (animals) (skin [6]; [9]): Same as left
Contact photosensitization (result in words) (skin [6]; guinea pigs): not observed at all

SMILES: O=c1oc(-c2ccc3cc(-c4nc5ccccc5c(=O)o4)ccc3c2)nc2ccccc12 [C, 2,2'-(2,6-naphthylene)bis(3,1-benzoxazin-4-one)]
λmax (maximum absorption wavelength) [2]: 354 nm
λs (absorption intiation wavelength) [2]: 400 nm
E 1%, 1cm [2]: 1070
Formation of edema (animals) (skin [4]; [7]): 0/4
Formation of erythema or eschar: animals judged + (skin [4]; [7]): Same as left
Formation of erythema or eschar: animals judged +++ (skin [4]; [8]): Same as left
Mutagenicity (Microorganisms): No mutagenicity was observed
Formation of erythema, judgement 0 (animals) (skin [6]; 0 = No erythema, 24 and 48 hours after irradiation, 10.2 J/cm², guinea pigs): 9/10
Formation of erythema, judgement 1 (animals) (skin [6]; 1 = Erythema in very light degree, guinea pigs): 1/10
Formation of erythema, judgement 3 (animals) (skin [6]; [9]): Same as left
Contact photosensitization (result in words) (skin [6]; guinea pigs): Very slight contact photosensitization was observed
